Laboratory results published in ChEMBL document CHEMBL1153031, “Evaluation of anti-inflammatory effect of synthetic 1,5-bis(4-acetoxy-3-methoxyphenyl)-1,4-pentadien-3-one, HB2” (Bioorg Med Chem, 2009).
The source made the active and inactive calls. No cut-off for these calls is given here.

What was measured:
Mus musculus [1] = assay: Antiinflammatory activity against carrageenan-induced paw oedema in mouse at 1 mg/kg, ip treated 30 mins before carrageenan challenge measured after 6 hrs by plethysmometry analysis; type: functional; settings: route intraperitoneal
Mus musculus [2] = assay: Antiinflammatory activity against bradykinin-induced paw oedema in mouse at 1 mg/kg, ip treated 30 mins before bradykinin challenge measured after 15 mins by plethysmometry analysis; type: functional; settings: route intraperitoneal
Mus musculus [3] = assay: Antiinflammatory activity against bradykinin-induced paw oedema in mouse at 1 mg/kg, ip treated 30 mins before bradykinin challenge measured after 30 mins by plethysmometry analysis; type: functional; settings: route intraperitoneal
Mus musculus [4] = assay: Antiinflammatory activity against bradykinin-induced paw oedema in mouse at 1 mg/kg, ip treated 30 mins before bradykinin challenge measured after 60 mins by plethysmometry analysis; type: functional; settings: route intraperitoneal
Mus musculus [5] = assay: Antiinflammatory activity against bradykinin-induced paw oedema in mouse at 1 mg/kg, ip treated 30 mins before bradykinin challenge measured after 120 mins by plethysmometry analysis; type: functional; settings: route intraperitoneal
Mus musculus [6] = assay: Antiinflammatory activity against bradykinin-induced paw oedema in mouse at 1 mg/kg, ip treated 30 mins before bradykinin challenge measured after 240 mins by plethysmometry analysis; type: functional; settings: route intraperitoneal
Mus musculus [7] = assay: Antiinflammatory activity against carrageenan-induced paw oedema in mouse at 1 mg/kg, ip treated 30 mins before carrageenan challenge measured after 1 hr by plethysmometry analysis; type: functional; settings: route intraperitoneal
Mus musculus [8] = assay: Antiinflammatory activity against carrageenan-induced paw oedema in mouse at 1 mg/kg, ip treated 30 mins before carrageenan challenge measured after 2 hrs by plethysmometry analysis; type: functional; settings: route intraperitoneal
Mus musculus [9] = assay: Antiinflammatory activity against carrageenan-induced paw oedema in mouse at 1 mg/kg, ip treated 30 mins before carrageenan challenge measured after 4 hrs by plethysmometry analysis; type: functional; settings: route intraperitoneal
Mus musculus [10] = assay: Antiinflammatory activity against carrageenan-induced paw oedema in mouse at 1 mg/kg, ip treated 30 mins before carrageenan challenge measured after 5 hrs by plethysmometry analysis; type: functional; settings: route intraperitoneal
Mus musculus [11] = assay: Antiinflammatory activity against bradykinin-induced paw oedema in mouse at 10 mg/kg, ip treated 30 mins before bradykinin challenge measured after 15 mins by plethysmometry analysis; type: functional; settings: route intraperitoneal
Mus musculus [12] = assay: Antiinflammatory activity against bradykinin-induced paw oedema in mouse at 10 mg/kg, ip treated 30 mins before bradykinin challenge measured after 30 mins by plethysmometry analysis; type: functional; settings: route intraperitoneal
Mus musculus [13] = assay: Antiinflammatory activity against bradykinin-induced paw oedema in mouse at 10 mg/kg, ip treated 30 mins before bradykinin challenge measured after 60 mins by plethysmometry analysis; type: functional; settings: route intraperitoneal
Mus musculus [14] = assay: Antiinflammatory activity against bradykinin-induced paw oedema in mouse at 10 mg/kg, ip treated 30 mins before bradykinin challenge measured after 120 mins by plethysmometry analysis; type: functional; settings: route intraperitoneal
Mus musculus [15] = assay: Antiinflammatory activity against bradykinin-induced paw oedema in mouse at 10 mg/kg, ip treated 30 mins before bradykinin challenge measured after 240 mins by plethysmometry analysis; type: functional; settings: route intraperitoneal
Mus musculus [16] = assay: Antiinflammatory activity against carrageenan-induced paw oedema in mouse at 10 mg/kg, ip treated 30 mins before carrageenan challenge measured after 1 hr by plethysmometry analysis; type: functional; settings: route intraperitoneal
Mus musculus [17] = assay: Antiinflammatory activity against carrageenan-induced paw oedema in mouse at 10 mg/kg, ip treated 30 mins before carrageenan challenge measured after 2 hrs by plethysmometry analysis; type: functional; settings: route intraperitoneal
Mus musculus [18] = assay: Antiinflammatory activity against carrageenan-induced paw oedema in mouse at 10 mg/kg, ip treated 30 mins before carrageenan challenge measured after 4 hrs by plethysmometry analysis; type: functional; settings: route intraperitoneal
Mus musculus [19] = assay: Antiinflammatory activity against carrageenan-induced paw oedema in mouse at 10 mg/kg, ip treated 30 mins before carrageenan challenge measured after 5 hrs by plethysmometry analysis; type: functional; settings: route intraperitoneal
Mus musculus [20] = assay: Antiinflammatory activity against carrageenan-induced paw oedema in mouse at 10 mg/kg, ip treated 30 mins before carrageenan challenge measured after 6 hrs by plethysmometry analysis; type: functional; settings: route intraperitoneal
Mus musculus [21] = assay: Antiinflammatory activity in ip dosed mouse assessed as inhibition of acetic acid-induced abdominal constriction administered 30 mins before acetic acid challenge; type: functional, Abdomen
Mus musculus [22] = assay: Antinociceptive activity against formalin-induced nociception in mouse assessed as inhibition of paw licking time at 10 mg/kg, ip administered 30 mins before formalin challenge measured after 30 mins relative to control; type: functional; settings: route intraperitoneal
Mus musculus [23] = assay: Antinociceptive activity against formalin-induced nociception in ip dosed mouse assessed as inhibition of paw licking time administered 30 mins before formalin challenge measured after 30 mins; type: functional, organism-based
Mus musculus [24] = assay: Neurotoxicity in mouse assessed as depression activity at 1 mg/kg, ip administered 15 mins before test measured after 60 seconds by rotarod test; type: toxicity, organism-based; design: dose 1 mg/kg, route intraperitoneal; settings: in vivo, 0.25 h
Mus musculus [25] = assay: Neurotoxicity in mouse assessed as depression activity at 10 mg/kg, ip treated 15 mins before test measured after 60 seconds by rotarod test; type: toxicity, organism-based; design: dose 10 mg/kg, route intraperitoneal; settings: in vivo, 0.25 h
Mus musculus [26] = assay: Neurotoxicity in mouse assessed as muscular impairment at 1 mg/kg, ip administered 15 mins before test measured after 60 seconds by rotarod test; type: toxicity, organism-based; design: dose 1 mg/kg, route intraperitoneal; settings: in vivo, 0.25 h
Mus musculus [27] = assay: Neurotoxicity in mouse assessed as muscular impairment at 10 mg/kg, ip administered 15 mins before test measured after 60 seconds by rotarod test; type: toxicity, organism-based; design: dose 10 mg/kg, route intraperitoneal; settings: in vivo, 0.25 h
Mus musculus [28] = assay: Antiinflammatory activity in mouse peritoneal cavity assessed as reduction in cell migration during carrageenan-induced inflammation at 0.1 mg/kg, ip administered 30 mins before carrageenan challenge measured after 4 hrs; type: functional, organism-based; design: dose 0.1 mg/kg
Mus musculus [29] = assay: Antiinflammatory activity in mouse peritoneal cavity assessed as reduction in cell migration during carrageenan-induced inflammation at 1 mg/kg, ip administered 30 mins before carrageenan challenge measured after 4 hrs; type: functional, organism-based; design: dose 1 mg/kg
Mus musculus [30] = assay: Antiinflammatory activity in mouse assessed as reduction in total cell count in peritoneal exudate during carrageenan-induced inflammation at 10 mg/kg, ip administered 30 mins before carrageenan challenge measured after 4 hrs; type: functional; design: scale not given: the % may be the effect or the level left; settings: route intraperitoneal
Mus musculus [31] = assay: Antiinflammatory activity in mouse assessed as reduction in total cell count in peritoneal exudate during carrageenan-induced inflammation at 0.5 mg/kg, sc administered 4 hrs before carrageenan challenge measured after 4 hrs; type: functional; design: scale not given: the % may be the effect or the level left; settings: route subcutaneous
Mus musculus [32] = assay: Antiinflammatory activity in mouse assessed as neutrophil population in peritoneal exudate during carrageenan-induced inflammation at 0.5 mg/kg, sc administered 4 hrs before carrageenan challenge measured after 4 hrs by myeloperoxidase activity assay; type: functional; settings: route subcutaneous
Mus musculus [33] = assay: Antiinflammatory activity in mouse assessed as neutrophil population in peritoneal exudate during carrageenan-induced inflammation at 0.1 mg/kg, ip administered 30 mins before carrageenan challenge measured after 4 hrs by myeloperoxidase activity assay; type: functional; settings: route intraperitoneal
Mus musculus [34] = assay: Antiinflammatory activity in mouse assessed as neutrophil population in peritoneal exudate during carrageenan-induced inflammation at 1 mg/kg, ip administered 30 mins before carrageenan challenge measured after 4 hrs by myeloperoxidase activity assay; type: functional; settings: route intraperitoneal
Mus musculus [35] = assay: Antiinflammatory activity in mouse assessed as neutrophil population in peritoneal exudate during carrageenan-induced inflammation at 10 mg/kg, ip administered 30 mins before carrageenan challenge measured after 4 hrs by myeloperoxidase activity assay; type: functional; settings: route intraperitoneal
RAW264.7 [36] = assay: Reduction in LPS-induced nitric oxide production in mouse RAW264.7 cells at 1 uM after 24 hrs by Griess assay (Rvb=74.2 +/- 1.6 uM); type: functional
RAW264.7 [37] = assay: Reduction in LPS-induced nitric oxide production in mouse RAW264.7 cells at 3 uM after 24 hrs by Griess assay (Rvb=74.2 +/- 1.6 uM); type: functional
RAW264.7 [38] = assay: Reduction in LPS-induced nitric oxide production in mouse RAW264.7 cells at 10 uM after 24 hrs by Griess assay (Rvb=74.2 +/- 1.6 uM); type: functional
[39] = Cytotoxicity against mouse RAW264.7 cells assessed as cell viability at 1 uM after 24 hrs by MTT assay; type: cell-based; settings: read-out: Activity
[40] = Cytotoxicity against mouse RAW264.7 cells assessed as cell viability at 3 uM after 24 hrs by MTT assay; type: cell-based; settings: read-out: Activity
[41] = Cytotoxicity against mouse RAW264.7 cells assessed as cell viability at 10 uM after 24 hrs by MTT assay; type: cell-based; settings: read-out: Activity
RAW264.7 [42] = assay: Antiinflammatory activity in mouse RAW264.7 cells assessed as inhibition of LPS-induced PGE2 production at 3 uM after 24 hrs by enzyme immunoassay; type: functional; settings: RAW264.7, 24 h
RAW264.7 [43] = assay: Antiinflammatory activity in mouse RAW264.7 cells assessed as inhibition of LPS-induced PGE2 production at 10 uM after 24 hrs by enzyme immunoassay; type: functional; settings: RAW264.7, 24 h
RAW264.7 [44] = assay: Antiinflammatory activity in mouse RAW264.7 cells assessed as inhibition of LPS-induced PGE2 production at 100 uM after 24 hrs by enzyme immunoassay; type: functional; settings: RAW264.7, 24 h

`COc1cc(/C=C/C(=O)/C=C/c2ccc(O)c(OC)c2)ccc1O` gave an inhibition in vivo at 1 mg/kg (Mus musculus [1]) of 10.1%, an inhibition in vivo at 1 mg/kg (Mus musculus [2]) of 5.04% and an inhibition in vivo at 1 mg/kg (Mus musculus [3]) of 4%. The inhibition in vivo at 1 mg/kg (Mus musculus [4]) was 3.25%, the inhibition in vivo at 1 mg/kg (Mus musculus [5]) was 2.5% and the inhibition in vivo at 1 mg/kg (Mus musculus [6]) was 2.2%. For the same molecule, the inhibition in vivo at 1 mg/kg (Mus musculus [7]) was 14.6%, the inhibition in vivo at 1 mg/kg (Mus musculus [8]) was 22.9% and the inhibition in vivo at 1 mg/kg (Mus musculus [9]) was 17.4%. It also gave an inhibition in vivo at 1 mg/kg (Mus musculus [10]) of 15.1%.
`COc1cc(/C=C/C(=O)/C=C/c2ccc(OC(C)=O)c(OC)c2)ccc1OC(C)=O` gave an inhibition in vivo at 10 mg/kg (Mus musculus [11]) of 4.25%, an inhibition in vivo at 10 mg/kg (Mus musculus [12]) of 3% and an inhibition in vivo at 10 mg/kg (Mus musculus [13]) of 2.8%. The inhibition in vivo at 10 mg/kg (Mus musculus [14]) was 2.5%, the inhibition in vivo at 10 mg/kg (Mus musculus [15]) was 2.18% and the inhibition in vivo at 10 mg/kg (Mus musculus [16]) was 10.8%. The inhibition in vivo at 10 mg/kg (Mus musculus [17]) was 12.1%, the inhibition in vivo at 10 mg/kg (Mus musculus [18]) was 8.67% and the inhibition in vivo at 10 mg/kg (Mus musculus [19]) was 8.57%. For the same molecule, the inhibition in vivo at 10 mg/kg (Mus musculus [20]) was 6.57%, the “inhibition (INH)” value (Mus musculus [21]) was 82.5% and the ED50 (Mus musculus [21]; Mus musculus, Abdomen, ip) was 7.6 mg/kg. For the same molecule, the inhibition in vivo at 10 mg/kg (Mus musculus [22]) was 86%, the EC50 (Mus musculus [23]) was 5.8 mg/kg and the Activity (Mus musculus [24]) was “Non-toxic”. The Activity (Mus musculus [25]) was “Non-toxic”, the Activity (Mus musculus [26]) was “Non-toxic” and the Activity (Mus musculus [27]) was “Non-toxic”. The Activity (Mus musculus [28]) was “inactive”, the Activity (Mus musculus [29]) was “inactive” and the Activity (Mus musculus [30]) was 50%. It also gave an Activity (Mus musculus [31]) of 20%, an Activity (Mus musculus [32]) of 98% and an Activity (Mus musculus [33]) of 98%. It also gave an Activity (Mus musculus [34]) of 98%, an Activity (Mus musculus [35]) of 98% and an Activity (RAW264.7 [36]) of 49 µM. For the same molecule, the Activity (RAW264.7 [37]) was 20 µM, the Activity (RAW264.7 [38]) was 3 µM and the viability at 24 h, 1 µM [39] was > 90%. For the same molecule, the viability at 24 h, 3 µM [40] was > 90%, the viability at 24 h, 10 µM [41] was > 90% and the inhibition at 3 µM (RAW264.7 [42]) was 48%. It also gave an inhibition at 10 µM (RAW264.7 [43]) of 71% and an inhibition at 100 µM (RAW264.7 [44]) of 76%.
